For one data set, the system named is Plasmopara viticola. Kind of data set: Plasmopara test (grapevine)/protective. The settings on record: 144 h, read-out: Efficacy, grapevine, protective, 100 g/ha, 6 days after inoculation.
The next data set concerns Venturia inaequalis. The experiment in a line: Venturia test (apple)/protective. The settings on record: 288 h, read-out: Efficacy, apple, protective, 10 g/ha, 12 days after inoculation.
Data set [1] can be described thus: logP by HPLC (EEC Directive 79/831 Annex V. A8, gradient method, acetonitrile/0.1% aqueous phosphoric acid). In kind it is physicochemical. The method, then:
*The logP values were determined in accordance with EEC Directive 79/831
Annex V. A8 by HPLC (gradient method, acetonitrile/0.1% aqueous phosphoric

Protocol for Plasmopara viticola: Solvent: 47 parts by weight of acetone
(§1) Emulsifier: 3 parts by weight of alkylaryl polyglycol ether
After the spray coating has dried on, the plants are inoculated with an aqueous spore suspension of Plasmopara viticola and then remain in an incubation cabin at approximately 20° C. and 100% relative atmospheric humidity for 1 day. The plants are subsequently placed in a greenhouse at approximately 21° C. and approximately 90% relative atmospheric humidity for 5 days. The plants are then moistened and placed in an incubation cabin for 1 day.
Evaluation is carried out 6 days after the inoculation.
Protocol for Venturia inaequalis: Solvent: 47 parts by weight of acetone
as §1
After the spray coating has dried on, the plants are inoculated with aqueous conidia suspension of the causative organism of apple scab Venturia inaequalis and then remain in an incubation cabin at approximately 20° C. and 100% relative atmospheric humidity for 1 day.
The plants are then placed in a greenhouse at approximately 21° C. and a relative atmospheric humidity of approximately 90%.
Evaluation is carried out 12 days after the inoculation.

As to `CCc1ccccc1Oc1ncnc(Oc2ccccc2C(=NOC)C2=NOCCN2)c1F` [Example 11], in the data set on Plasmopara viticola, the pest or weed control at 100 g/ha was at least 90%. Also, the pest or weed control at 10 g/ha in the data set on Venturia inaequalis is at least 90%. In data set [1], this compound yielded a chromatographic logP of 3.32.
As to `CON=C(C1=NOCCN1)c1ccccc1Oc1ncnc(Oc2ccccc2C(C)C)c1F` [Example 13], the pest or weed control at 100 g/ha in the data set with Plasmopara viticola is at least 90%. For the same compound, in the data set with Venturia inaequalis, the pest or weed control at 10 g/ha is at least 90%. The chromatographic logP in data set [1] amounted to 3.59.
With `CON=C(C1=NOCCN1)c1ccccc1Oc1ncnc(Oc2ccccc2C2CCCC2)c1F` [Example 17], the pest or weed control at 100 g/ha in the data set on Plasmopara viticola is at least 90%. In addition, the pest or weed control at 10 g/ha with Venturia inaequalis was at least 90%. In data set [1], this compound yielded a chromatographic logP of 4.01.
Regarding `CON=C(C1=NOCCN1)c1ccccc1Oc1ncnc(Oc2cccc(C)c2)c1F` [Example 20], in the data set with Plasmopara viticola, the pest or weed control at 100 g/ha was at least 90%. The pest or weed control at 10 g/ha with Venturia inaequalis was at least 90%. The chromatographic logP in data set [1] was 3.1.
Turning to `CON=C(C1=NOCCN1)c1ccccc1Oc1ncnc(Oc2cccc(C)c2Cl)c1F` [Example 59], the pest or weed control at 100 g/ha with Plasmopara viticola was at least 90%. For the same compound, the pest or weed control at 10 g/ha in the data set on Venturia inaequalis was at least 90%. In data set [1], the chromatographic logP was found to be 3.34.
